Publication PMC3561363, “A Novel Retro-Inverso Peptide Inhibitor Reduces Amyloid Deposition, Oxidation and Inflammation and Stimulates Neurogenesis in the APPswe/PS1ΔE9 Mouse Model of Alzheimer’s Disease” (PLoS ONE, 2013)
Where a SMILES comes first, the peptide text is derived from it.

Tests used:
[1] = tested on: activated microglia (Iba1) in APP/PS1 mouse cortex; experiment: Activated microglia, Iba1 immunostaining, cortex; format: in vivo; settings: 100 nmol/kg i.p. once daily, 21 days, 10 months old APP/PS1 mice, vs saline, p<0.0001, 4 animals per group
Experimental: (§1) APPswe/PS1ΔE9 mice with a C57Bl/6 background (APP/PS1 mice) were obtained from the Jackson lab (http://research.jax.org/repository/alzheimers.html). […] To look at the effects of RI-OR2-TAT on mouse brain pathology (experiment 2), 8 female 10-months-old APP/PS1 mice were used. The animals were housed in single cages in a temperature controlled holding room (21.5°C±1) with 12∶12 h light and dark cycle. Food and water was available ad libitum.
(§2) For experiment 2, 4 animals were injected intraperitonially (i.p.) with 0.9% NaCl (vehicle control) and the other 4 with RI-OR2-TAT (100 nmol/kg in 0.9% NaCl) once daily, for 21 days. […]
(§3) For experiment 2 (effects on brain pathology), sections were examined for activated microglia (using anti-Iba-1 antibody), oxidative stress (anti-8-oxo-guanine antibody), immature neurons (anti-doublecourtin antibody) or total plaque load (anti-Aβ antibody). […] Oxidative stress was assessed by denaturing DNA in each section using 2N HCl and the sections were then stained for 8-oxo guanine (1∶200 dilution, MAB3560, Millipore). Young immature neurons were detected by immunostaining for doublecortin (1∶200 dilution, sc-66911, Santa Cruz Biotechnology). Total plaque load was quantified by immunostaining for β-amyloid (1∶200 dilution, Invitrogen, 71–5800).
(§4) All sections were visualized using an Axio Scope 1 fluorescence microscope (Zeiss, Germany). […]

[2] = tested on: Aβ42; experiment: Atomic force microscopy (AFM) of Aβ42 aggregation; format: biochemical; settings: 1∶2 molar ratio RI-OR2-TAT:Aβ42 (12.5 µM:25 µM), 24 h, PBS pH 7.4
Experimental: Aβ42 was incubated at 25 µM in the presence or absence of 12.5 µM RI-OR2-TAT in PBS, pH 7.4, for 24 h. Samples were diluted 1∶10 in PBS and then a 2 µl aliquot was deposited onto the surface of freshly cleaned mica and allowed to dry. Images were obtained in tapping mode using a Multimode™ SPM NanoScope IIIa microscope (Digital Instruments, New York, USA). Silicon cantilever tips measuring 125 µm long, 30 µm wide and with a tip radius <10 nm were used (Budget Sensors, Bulgaria). The resonance frequency was 300 kHz and force constants 40 N/m. All images were first order flattened and edited using WSxM 5.0 Develop 4.3 software, (Nanotech, Madrid, Spain).

[3] = tested on: 8-oxo-guanine in APP/PS1 mouse cortex; experiment: Oxidative stress, 8-oxo-guanine immunostaining, cortex; format: in vivo; settings: 100 nmol/kg i.p. once daily, 21 days, 10 months old APP/PS1 mice, vs saline, p<0.0001, 4 animals per group
Experimental: as §1, §2, §3, §4

[4] = tested on: Aβ42; experiment: Immunoassay for Aβ oligomers (in vitro), 6E10/biotinylated 6E10 sandwich; format: biochemical; settings: 2∶1 and 1∶1 molar ratios of inhibitor:Aβ42; 12.5 µM Aβ42, PBS pH 7.4, 25°C, even at earliest time points 4 and 8 h
Experimental: This is a more sensitive test than the ThT assay for the detection of early oligomeric forms of Aβ [16]. Microtitre plates (96-well, Maxisorb) were coated with 6E10, diluted 1∶1000 in 10 mM PBS, pH 7.4, for overnight at 4°C. The plates were blocked with assay buffer (Tris-buffered saline (TBS) (pH 7.4), containing 0.05% γ-globulins and 0.005% Tween 20) plus 5% gelatine for 1 h at 37°C. Samples of peptide (12.5 µM Aβ42 and 0, 3.125, 6.25, 12.5, 25 or 62.5 µM RI-OR2–TAT in 10 mM PBS, pH 7.4) were incubated at 25°C for 0, 4, 8, 24 or 48 h, diluted to 1 µM Aβ, and plated in triplicate. The plates were incubated for 1 h at 37°C and then washed with PBS plus 0.05% Tween-20 (PBST). A 1∶1,000 dilution of biotinylated 6E10 was then added to each well, left for 1 h at 37°C, and the plates were washed with PBST. Europium-linked streptavidin was then added to the wells at 1∶500 dilution in StrepE buffer (TBS containing 20 µM DTPA, 0.5% bovine serum albumin, and 0.05% γ-globulins), incubated for 1 h, and washed as before. Enhancer solution was added and the plates were read on a Wallac Victor 2 plate reader, using the time-resolved fluorescence setting for europium.

[5] = tested on: SHSY-5Y neuroblastoma cells exposed to pre-aggregated Aβ42; experiment: Protection against Aβ42 toxicity, LDH assay; format: cell-based; settings: 0.5, 1, 5 or 10 µM inhibitor, 5 µM pre-aggregated Aβ42, 24 h, Optimem
Experimental: For cell toxicity assays, SHSY-5Y neuroblastoma cells were maintained in 10% Fetal Calf Serum supplemented Dulbecco’s Modified Eagle Medium (DMEM, Gibco) under standard mammalian cell culture conditions. The cells were transferred to sterile 96-well growth plates at 20,000 cells/well and 4 wells per condition. To test for any toxic effects of RI-OR2–TAT alone on the cells, they were left to adhere for 24 h before the addition of the inhibitor (at 12.5, 25, 50, 100 and 200 µM), in DMEM. To assess the ability of RI-OR2–TAT to protect against Aβ toxicity, the cell growth medium was changed to Optimem (Invitrogen) and Aβ42, pre-aggregated (at 100 µM) for 24 h at 25°C in PBS, was added to the cells at a concentration of 5 µM, together with various amounts (0, 0.1, 0.5, 1, 5 or 10 µM) of RI-OR2–TAT. In each case, after a further 24 h incubation period, the viability of the cells was assessed using a CytoTox 96® Non-Radioactive Cytotoxicity Assay (LDH) Assay (Promega) kit.

[6] = tested on: doublecortin-expressing neurons in APP/PS1 mouse dentate gyrus; experiment: Young immature neurons, doublecortin immunostaining, dentate region; format: in vivo; settings: 100 nmol/kg i.p. once daily, 21 days, 10 months old APP/PS1 mice, vs saline, p<0.0001, 4 animals per group

CC(=O)N[C@H](CCCNC(=N)N)C(=O)NCC(=O)N[C@H](Cc1ccccc1)C(=O)N[C@H](Cc1ccccc1)C(=O)N[C@@H](C(=O)N[C@H](CC(C)C)C(=O)N[C@H](CCCCN)C(=O)NCC(=O)N[C@H](CCCNC(=N)N)C(=O)N[C@H](CCCNC(=N)N)C(=O)N[C@H](CCCNC(=N)N)C(=O)N[C@H](CCCNC(=N)N)C(=O)N[C@H](CCC(N)=O)C(=O)N[C@H](CCCNC(=N)N)C(=O)N[C@H](CCCNC(=N)N)C(=O)N[C@H](CCCCN)C(=O)N[C@H](CCCCN)C(=O)N[C@H](CCCNC(=N)N)C(=O)NCC(=O)N[C@H](Cc1ccc(O)cc1)C(N)=O)C(C)C [RI-OR2-TAT, Ac-rGffvlkGrrrrqrrkkrGy-NH2] (HELM PEPTIDE1{[ac].[dR].G.[dF].[dF].[dV].[dL].[dK].G.[dR].[dR].[dR].[dR].[dQ].[dR].[dR].[dK].[dK].[dR].G.[dY].[am]}$$$$V2.0)
reduction of number of activated microglia [1]: 44% | inhibition of oligomer formation by AFM [2]: clear inhibition of oligomer formation | reduction of 8-oxo-guanine immunostaining (oxidative damage) [3]: 25% | development of immunoassay signal (oligomer formation) [4]: considerably reduced the development of an immunoassay signal | protection against toxic effects of pre-aggregated Aβ42 [5]: protected against the toxic effects | increase in mean number of young doublecortin-expressing neurons [6]: 210%
